Values after ≈ are worked out from the molar mass of the structure shown.
Legend:
[1] = tested on: Ps.cepacia 23; assay: In vitro antibacterial activity, agar plate dilution method (MIC); type: cell-based, Pseudomonas cepacia; details: Burkholderia cepacia, 23, 16 h, read-out: Minimum Inhibitory Concentration (MIC: µg/ml)
[2] = tested on: E.coli CSH2 (RK1); assay: as above; type: cell-based; details: Escherichia coli, 16 h, read-out: Minimum Inhibitory Concentration (MIC: µg/ml)
[3] = tested on: K.pneumoniae PCI-602; assay: as above; type: cell-based; details: Klebsiella pneumoniae, PCI602, 16 h, read-out: Minimum Inhibitory Concentration (MIC: µg/ml)
[4] = tested on: S.aureus 209P NIHJ-JC1; assay: as above; type: cell-based; details: Staphylococcus aureus, 16 h, read-out: Minimum Inhibitory Concentration (MIC: µg/ml)
[5] = tested on: E.cloacae 963; assay: as above; type: cell-based; details: Enterobacter cloacae, 963, 16 h, read-out: Minimum Inhibitory Concentration (MIC: µg/ml)
[6] = tested on: P.vulgaris HX-19; assay: as above; type: cell-based; details: Proteus vulgaris, HX19, 16 h, read-out: Minimum Inhibitory Concentration (MIC: µg/ml)
[7] = tested on: K.pneumoniae No. 42; assay: as above; type: cell-based; details: Klebsiella pneumoniae, NO.42, 16 h, read-out: Minimum Inhibitory Concentration (MIC: µg/ml)
[8] = tested on: E.coli GN5482; assay: as above; type: cell-based; details: Escherichia coli, GN5482, 16 h, read-out: Minimum Inhibitory Concentration (MIC: µg/ml)
[9] = tested on: C.freundii GN346/16; assay: as above; type: cell-based; details: Citrobacter freundii, GN346, 16 h, read-out: Minimum Inhibitory Concentration (MIC: µg/ml)
[10] = tested on: S.marcescens No. 16-2; assay: as above; type: cell-based; details: Serratia marcescens, NO.162, 16 h, read-out: Minimum Inhibitory Concentration (MIC: µg/ml)
[11] = tested on: P.vulgaris No. 33; assay: as above; type: cell-based; details: Proteus vulgaris, NO.33, 16 h, read-out: Minimum Inhibitory Concentration (MIC: µg/ml)
[12] = tested on: M.morganii GN5407; assay: as above; type: cell-based; details: Morganella morganii, GN5407, 16 h, read-out: Minimum Inhibitory Concentration (MIC: µg/ml)
[13] = tested on: E.coli CSH(RE45); assay: as above; type: cell-based; details: Escherichia coli, 16 h, read-out: Minimum Inhibitory Concentration (MIC: µg/ml)
[14] = tested on: S.aureus JS1; assay: as above; type: cell-based; details: Staphylococcus aureus, JS1, 16 h, read-out: Minimum Inhibitory Concentration (MIC: µg/ml)
[15] = tested on: S.aureus BB5703; assay: as above; type: cell-based; details: Staphylococcus aureus, BB5703, 16 h, read-out: Minimum Inhibitory Concentration (MIC: µg/ml)
[16] = tested on: Ps.aeruginosa AK 109; assay: as above; type: cell-based; details: Pseudomonas aeruginosa, AK109, 16 h, read-out: Minimum Inhibitory Concentration (MIC: µg/ml)
[17] = tested on: C.freundii GN346; assay: as above; type: cell-based; details: Citrobacter freundii, GN346, 16 h, read-out: Minimum Inhibitory Concentration (MIC: µg/ml)
[18] = tested on: A.calcoaceticus No. 4; assay: as above; type: cell-based; details: Acinetobacter calcoaceticus, NO.4, 16 h, read-out: Minimum Inhibitory Concentration (MIC: µg/ml)
[19] = tested on: Ps.aeruginosa AKR17; assay: as above; type: cell-based; details: Pseudomonas aeruginosa, AKR17, 16 h, read-out: Minimum Inhibitory Concentration (MIC: µg/ml)
[20] = tested on: M.luteus ATCC9341; assay: as above; type: cell-based; details: Micrococcus luteus, ATCC9341, 16 h, read-out: Minimum Inhibitory Concentration (MIC: µg/ml)
[21] = tested on: K.oxytoca GN10650; assay: as above; type: cell-based; details: Klebsiella oxytoca, GN10650, 16 h, read-out: Minimum Inhibitory Concentration (MIC: µg/ml)
[22] = tested on: S.epidermidis IAM12012; assay: as above; type: cell-based; details: Staphylococcus epidermidis, IAM12012, 16 h, read-out: Minimum Inhibitory Concentration (MIC: µg/ml)
[23] = tested on: Ps.aeruginosa IFO3445; assay: as above; type: cell-based; details: Pseudomonas aeruginosa, IFO3445, 16 h, read-out: Minimum Inhibitory Concentration (MIC: µg/ml)
[24] = tested on: E.coli NIHJ JC2; assay: as above; type: cell-based; details: Escherichia coli, NIHJJC2, 16 h, read-out: Minimum Inhibitory Concentration (MIC: µg/ml)
[25] = tested on: E.cloacae Nek 39; assay: as above; type: cell-based; details: Enterobacter cloacae, NEK39, 16 h, read-out: Minimum Inhibitory Concentration (MIC: µg/ml)
[26] = tested on: S.marcescens IAM 1184; assay: as above; type: cell-based; details: Serratia marcescens, IAM1184, 16 h, read-out: Minimum Inhibitory Concentration (MIC: µg/ml)
[27] = tested on: Ps.maltophilia GN 12873; assay: as above; type: cell-based, Pseudomonas maltophilia; details: Stenotrophomonas maltophilia, GN12873, 16 h, read-out: Minimum Inhibitory Concentration (MIC: µg/ml)
[28] = tested on: Enterobacter cloacae GN 5797; assay: Induction of β-lactamase by β-lactam antibiotics; type: cell-based
Protocol: The assay method for induction of β-lactamase by β-latam antibiotics was as follows: The test organism, Enterobacter cloacae GN 5797, was grown overnight in Mueller Hinton broth (Dlfco Laboratories, Detroit, Mich.) at 37°C. The culture was diluted l0-fold into 20 ml of the flesh medium and incubated with shaking at 37°C. After 2 hours of incubation, antibiotics were added to final concentrations of 50 µg/ml, l0 µg/ml and l µg/ml, and the incubation was continued. At l hour intervals after the addition of antibiotic, 5 ml of sample was taken, and immediately added with 0.l ml of 50 mM sodium azide. The cells were harvested and washed with 50 mM phosphate buffer (pH 7.0). The cells were suspended in 5 ml of 50 mM phosphate buffer and disrupted with a sonicater in an ice-water bath. The broken cells were centrifuged at l6,500 G for 40 minutes at 4°C, and the resulting supernatant fluid was used as the crude enzyme. β-Lactamase activity was determined by a spectrophotometric method (Antmicrob. Agents Chemother. 17, 355-358, 1980) with cephaloridine as substrate. The concentration of protein was determined by the method of Lowry (J. Biol. Chem. 193, 265-275, 1951).

`CC(C)(O/N=C(\C(=O)NC1C(=O)N2C(C(=O)[O-])=C(C[n+]3ccc4cc(O)c(O)cc4c3)CSC12)c1csc(N)n1)C(=O)O` (stereo not drawn) [Ex. 4, 7-[2-(2-aminothiazol-4-yl)-2-(l-carboxy-l-methylethoxyimino)acetamido]-3-(6,7-dihydroxy-2-isoquinolinio)methyl-3-cephem-4-carboxylate] gave an MIC [1] of less than 0.006 µg/mL, an MIC [2] of less than 0.006 µg/mL and an MIC [3] of less than 0.006 µg/mL. It also gave an MIC [4] of 25 µg/mL (≈ 39.8 µM), an MIC [5] of 0.025 µg/mL (≈ 0.0398 µM) and an MIC [6] of less than 0.006 µg/mL. For the same compound, the MIC [7] was 0.025 µg/mL (≈ 0.0398 µM), the MIC [8] was 0.39 µg/mL (≈ 0.62 µM) and the MIC [9] was 1.56 µg/mL (≈ 2.48 µM). For the same compound, the MIC [10] was 0.2 µg/mL (≈ 0.318 µM), the MIC [11] was 0.0125 µg/mL (≈ 0.0199 µM) and the MIC [12] was 0.05 µg/mL (≈ 0.0795 µM). The MIC [13] was 0.39 µg/mL (≈ 0.62 µM), the MIC [14] was 100 µg/mL (≈ 159 µM) and the MIC [15] was 50 µg/mL (≈ 79.5 µM). For the same compound, the MIC [16] was 0.2 µg/mL (≈ 0.318 µM), the MIC [17] was 50 µg/mL (≈ 79.5 µM) and the MIC [18] was 0.1 µg/mL (≈ 0.159 µM). For the same compound, the MIC [19] was 0.78 µg/mL (≈ 1.24 µM), the MIC [20] was 6.25 µg/mL (≈ 9.94 µM) and the MIC [21] was less than 0.006 µg/mL. The MIC [22] was 12.5 µg/mL (≈ 19.9 µM), the MIC [23] was 0.2 µg/mL (≈ 0.318 µM) and the MIC [24] was 0.1 µg/mL (≈ 0.159 µM). For the same compound, the MIC [25] was 0.025 µg/mL (≈ 0.0398 µM), the MIC [26] was 0.0125 µg/mL (≈ 0.0199 µM) and the MIC [27] was 1.56 µg/mL (≈ 2.48 µM). For the same compound, the “Specific activity (unit/mg protein)” value ([28]; induced β-lactamase activity of crude enzyme, Concentration 10 µg/ml, Incubation time 3 hr, Substrate: 100 µM of cephaloridine) was 0.064 unit/mg protein and the β-lactamase inducibility ([28]; measured by Enterobacter cloacae GN 5797) was “no substantial β-lactamase-inducing activity was observed”.
